Results on 13 compounds are retold here after patent US7977352B2, “Triazolopyridine compounds useful for the treatment of degenerative and inflammatory diseases” (Galapagos NV, priority 2006, dated 2011).

This assay has as its target T1, TAK1-TAB1 fusion protein (Homo sapiens, UniProt O43318).
T1 construct: purchased Upstate 14-600
T1 sequence (O43318 with tags, fused parts or gaps limits assumed): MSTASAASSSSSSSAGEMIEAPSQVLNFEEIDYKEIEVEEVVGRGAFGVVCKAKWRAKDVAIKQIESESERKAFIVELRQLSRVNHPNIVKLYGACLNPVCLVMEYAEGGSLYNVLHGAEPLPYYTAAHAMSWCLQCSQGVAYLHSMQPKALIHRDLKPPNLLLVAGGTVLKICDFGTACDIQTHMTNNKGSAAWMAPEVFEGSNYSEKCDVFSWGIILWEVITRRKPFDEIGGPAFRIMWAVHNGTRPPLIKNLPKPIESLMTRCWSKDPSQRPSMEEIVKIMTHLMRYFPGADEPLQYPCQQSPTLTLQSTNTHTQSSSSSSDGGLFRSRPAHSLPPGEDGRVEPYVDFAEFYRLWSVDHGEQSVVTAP
Kind of assay: In vitro TAK1 kinase assay. The format is biochemical. The settings on record: casein substrate, [33P]-γ-ATP, 90 minutes at 30° C., semi-quantitative score, read-out: POTENCY TAK1 (MAP3K7). The method in brief: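 Radiometric kinase assay with TAK1-TAB1 fusion protein (0.5 mU), casein substrate, ATP plus [^33P]-γ-ATP in MOPS pH 7.0/EDTA buffer, compounds in 3-fold dilutions. 90 min at 30 °C, stopped with phosphoric acid; casein-incorporated label captured on filter plates and counted by scintillation.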
`NC(=O)c1ccc(-c2ccc(Nc3ccc(N4CCOCC4)cc3)c3ncnn23)cc1` [Example 1, 4-[8-(4-Morpholin-4-yl-phenylamino)-[1,2,4]triazolo[1,5-a]pyridin-5-yl]-benzamide]: the IC50 is greater than 10000 nM. For the compound `CN1CCN(c2ccc(Nc3ccc(-c4cn[nH]c4)n4ncnc34)cc2)CC1` [Example 2, [4-(4-Methyl-piperazin-1-yl)-phenyl]-[5-(1H-pyrazol-4-yl)-[1,2,4]triazolo[1,5-a]pyridin-8-yl]-amine], the IC50 was in the range of 501 to 1000 nM. With `O=C(NCc1cccnc1)c1ccc(Nc2ccc(-c3cn[nH]c3)n3ncnc23)cc1` [Example 3, 4-[5-(1H-Pyrazol-4-yl)-[1,2,4]triazolo[1,5-a]pyridin-8-ylamino]-N-pyridin-3-ylmethyl-benzamide], the IC50 lay within 501 to 1000 nM. Regarding `CN1CCN(c2ccc(Nc3ccc(-c4cc[nH]c(=O)c4)n4ncnc34)cc2)CC1` [Example 4, 4-{8-[4-(4-Methyl-piperazin-1-yl)-phenylamino]-[1,2,4]triazolo[1,5-a]pyridin-5-yl}-1H-pyridin-2-one], the IC50 was in the range of 501 to 1000 nM. `O=C(NCc1cccnc1)c1ccc(Nc2ccc(-c3cc[nH]c(=O)c3)n3ncnc23)cc1` [Example 5, 4-[5-(2-oxo-1,2-dihydro-pyridin-4-yl)-[1,2,4]triazolo[1,5-a]pyridin-8-ylamino]-N-pyridin-3-ylmethyl-benzamide]: the IC50 is 501 to 1000 nM. On to `c1nc2c(Nc3ccc(N4CCOCC4)cc3)ccc(-c3cn[nH]c3)n2n1` [Example 7, (4-Morpholin-4-yl-phenyl)-[5-(1H-pyrazol-4-yl)-[1,2,4]triazolo[1,5-a]pyridin-8-yl]-amine], for which the IC50 was in the range of 501 to 1000 nM.

On to `Cc1[nH]ncc1-c1ccc(Nc2ccc(N3CCOCC3)cc2)c2ncnn12` [Example 8, [5-(5-Methyl-1H-pyrazol-4-yl)-[1,2,4]triazolo[1,5-a]pyridin-8-yl]-(4-morpholin-4-yl-phenyl)-amine], for which the IC50 was in the range of 1000 to 5000 nM.

Take `CN1CCN(c2ccc(Nc3ccc(-c4cn[nH]c4)n4ncnc34)cc2)CC1` [Example 36, N-[4-(4-methylpiperazin-1-yl)phenyl]-5-(1H-pyrazol-4-yl)[1,2,4]triazolo[1,5-a]pyridin-8-amine]: the IC50 was less than 500 nM.

For `O=C(NCc1cccnc1)c1ccc(Nc2ccc(-c3cn[nH]c3)n3ncnc23)cc1` [Example 37, 4-{[5-(1H-pyrazol-4-yl)[1,2,4]triazolo[1,5-a]pyridin-8-yl]amino}-N-(pyridin-3-ylmethyl)benzamide], the IC50 was in the range of 501 to 1000 nM. On to `Cc1[nH]ncc1-c1ccc(Nc2ccc(N3CCOCC3)cc2)c2ncnn12` [Example 39, 5-(5-methyl-1H-pyrazol-4-yl)-N-(4-morpholin-4-ylphenyl)[1,2,4]triazolo[1,5-a]pyridin-8-amine], for which the IC50 is 1000 to 5000 nM. As for `CN1CCN(c2ccc(Nc3ccc(-c4cc[nH]c(=O)c4)n4ncnc34)cc2)CC1` [Example 40, 4-(8-{[4-(4-methylpiperazin-1-yl)phenyl]amino}[1,2,4]triazolo[1,5-a]pyridin-5-yl)pyridin-2(1H)-one], the figure is less than 500 nM; as for `O=C(NCc1cccnc1)c1ccc(Nc2ccc(-c3cc[nH]c(=O)c3)n3ncnc23)cc1` [Example 41, 4-{[5-(2-oxo-1,2-dihydropyridin-4-yl)[1,2,4]triazolo[1,5-a]pyridin-8-yl]amino}-N-(pyridin-3-ylmethyl)benzamide], 1000 to 5000 nM. Take `CN1CCN(c2ccc(Nc3ccc(-c4ccc(C(N)=O)c(F)c4)n4ncnc34)cc2)CC1` [Example 42, 2-fluoro-4-(8-{[4-(4-methylpiperazin-1-yl)phenyl]amino}[1,2,4]triazolo[1,5-a]pyridin-5-yl)benzamide]: the IC50 is 1000 to 5000 nM.
